Measured values as given in patent US10501502B2, “Allophycocyanin alpha-subunit evolved labeling proteins (smURFPs)” (The Regents of the University of California, priority 2016, dated 2019).
“Also recorded” adds a separate entry of the source.

Columns and labels:
[1] = FP purification and fluorescence characterization in vitro (spectra, extinction coefficient, quantum yield); assay type: physicochemical
Description: FP genes were expressed on a pBAD vector (Life Technologies) with a polyhistidine tag on the C terminus, cells were lysed with B-PER (Thermo Scientific), and purified using Ni-NTA (Qiagen) puri-fication. PCB (HO-1+PcyA) and BV (HO-1) incorporation in Escherichia coli was performed simultaneously during constitu-tively active FP expression. Extinction coefficient was determined by PCB or BV absorbance as described35,36 (Table 3, smURFP+BV and TDsmURFP+BV, and Table 2) or calculated for the apoproteins by determining the protein concentration by the BCA protein assay (Pierce), and a specific chromo-phore concentration was added (specified in the Purification of FP lacking chromophore and in vitro chromophore incorporation section) to get 1 and 2 chromophore species (Table 5, not including (Escherichia coli)). When FP chromophore (PCB or BV) was expressed in Escherichia coli, the PCB and BV Q band had absorbance that overlapped with detection of BCA or Bradford assay of 562 nm and 592 nm, respectively. We used the previously published protocols35,36, where there was no change of the BV absorbance at 390 nm when free in solution or attached to the FP. smURFP+BV denaturation with 1 M urea caused no change in the BV absorbance at 390 nm, but the Q band was reduced ˜20-fold. Therefore, the extinction coefficient of BV at 390 nm was used to calculate the concentration of holoprotein (FP+PCB or BV) concentration.
EX and EM spectra were obtained using SPEX Fluorolog fluorometer (Horiba). Absorbance spectra were obtained using UV-VIS Spectrophotometer Cary Eclipse (Varian) or UV-2700 (Shimadzu). Quantum yield was determined relative to Cy5. Incorporation rates of BV on 0.5 μM smURFP was performed by addition of smURFP to PBS alone or with 20% fetal bovine serum (FBS) and mixed by pipetting in a quartz cuvette. Chromophore was added last, mixed by pipetting, and fluorescence was recorded using SPEX Fluorolog fluorometer (Horiba). Photobleaching was characterized on bubbles of purified FP or Cy5 within mineral oil using light from a 150 W xenon arc lamp with 100% light through EX/EM=628(40)/680(30) nm for smURFP, TDsmURFP, and Cy5 or EX/EM=665 (45)/725 (50) nm for IFP 1.4 focused with a 40×, 1.2 numerical aperture C-Apochromat oil-immersion lens on a Zeiss Axiovert 200M inverted microscope. Photobleaching times were normalized to reflect an initial illumination intensity producing 1,000 photons per fluorescent molecule per second as previously described^37.
HO-1 was removed by digesting the pBAD vector (Life Technology) with MscI and PmeI (NEB). smURFP and TDsmURFP were expressed and purified as described above. No chromophore was present on smURFP and TDsmURFP (confirmed by UV, fluorescence imaging, and MS). For predominant fluorescent species+2 chromophores, a ten-fold excess of chromophore was added to smURFP and TDsmURFP. For predominant fluorescent species+1 chromophore, a quarter concentration of chromophore was added to smURFP and TDsmURFP. Chromophore was added in PBS+10% FBS at 37° C. overnight. smURFP+chromophore and TDsmURFP+chromophore were purified using NiNTA (Qiagen) to remove excess or noncovalently attached chromophore.

HEK293A cells = assay: Fluorescence imaging of FPs in HEK293A cells with chromophore addition or HO-1 expression; assay type: cell-based
Excerpt: smURFP codons were optimized for human cell expression, and the gene was created by GenScript. smURFP, TDsmURFP (created from mammalian-optimized smURFP), IFP1.4 (mammalian-optimized form^35), IFP2.0 (mammalian-optimized form^46), and iRFP713 (mammalian-optimized form^36) were PCR amplified using Phusion High-Fidelity DNA Polymerase (NEB) with primers containing 5′ HindIII and 3′ XhoI restriction enzyme sites. HindIII-HF and XhoI (NEB)-digested PCR fragments were gel purified (Zymoclean Gel DNA Recovery Kit) and were ligated (T4 DNA Ligase, Life Technologies) into a similarly digested pCDNA3-IRES-eGFP vector (bicistronic to express two FPs in the same cell). For creation of HO-1-expressing mammalian vec-tors, the Synechocystis HO-1 was used, and the codons were not optimized for mammalian expression. Synechocystis HO-1 was directly amplified from the pBAD vector using primers containing 5′ BsiWI and 3′ XbaI restriction enzyme sites. pCDNA3 smURFP, TDsmURFP, IFP1.4, IFP2.0, or iRFP713-IRES-eGFP vectors were digested with BsiWI and XbaI (NEB), dephosphorylated (SAP, Roche), gel purified (Zymoclean Gel DNA Recovery Kit), and ligated (T4 DNA Ligase, Life Technologies) with similarly digested, purified HO-1 PCR fragment. For creation of smURFP fusions, smURFP was PCR amplified using Phusion High-Fidelity DNA Polymerase (NEB) with primers containing 5′ AgeI and 3′ NotI restriction enzyme sites for N-terminal fusions or with primers containing 5′ AgeI and 3′ BspEI restriction enzyme sites for C-terminal fusions. mGeos2-VEL-ManII-N-10 (Addgene 57551) and Dronpa-PDHA1-N-10 (Addgene 57292) vectors were digested with AgeI and NotI (NEB) and mCherry-αTubulin-C-18 (Addgene 55148) and tdTomato-LaminB1-10 (Addgene 58107) were digested with AgeI and BspEI, dephosphorylated (SAP, Roche), gel purified (Zymoclean Gel DNA Recovery Kit), and ligated (T4 DNA Ligase, Life Technologies) with similarly digested, purified smURFP PCR fragment. HEK293A (Invitrogen, Life Technologies), HT1080 (ATCC), and PC3 (ATCC) cells were grown in Dulbecco's Modified Eagle's medium (DMEM, Corning), supplemented with 10% FBS (Atlanta Biologicals)+1×penicillin—streptomycin (Fisher Scientific), which is referred to as growth media, on poly-D-lysine-coated glass-bottom culture dishes (MatTek, No. P35G-0-14-C). The HEK cell line is listed in the ICLAC and NCBI biosample databases and is commonly misidentified as the HeLa cell line. For expression of exogenous fluorescent proteins, there is no problem if there is a contaminating cell line because no endogenous biology or therapeutic results are being determined. HEK293A cells were purchased from Invitrogen (Life Technologies), and all experiments are derived from the same expanded frozen stock without cell line authentication or mycoplasma detection. Cells were transfected using 2 μg of circular DNA+5 μl Lipofectamine 2000 (Life Technologies) in 2 ml Opti-MEM (Life Technologies) for 4-5 h, transfection media was discarded, and prewarmed growth media was added. Chromophores (5 mM in DMSO) were added at indicated concentrations to growth media, warmed for 10-15 min at 37° C., and added to cells. For multiple timepoints, incubations were staggered to maintain equivalent incubation. Prior to imaging, cells were washed 1×2 ml growth media, 2×2 ml imaging solution, and imaged in 2 ml imaging solution. Fluorescence imaging was performed on a Zeiss Axiovert 200M inverted microscope controlled by SlideBook software. FPs were imaged with the following settings: eGFP, EX/EM=495(10)/535(25) nm, tdTomato EX/EM=540(25)/595(50) nm; mCherry and mCardinal, EX/EM=580(20)/653(95) nm; smURFP and TDsmURFP, EX/EX=628(40)/680(30) nm; and IFP1.4, IFP2.0, and iRFP713, EX/EM=665(45)/725(50) nm. […]

[2] = BV or BVMe2 concentration in plasma, in vitro; settings: 10 μM, 37° C., up to 1,440 min
Description: Whole blood was collected via abdominal aorta and placed in tubes with lithium heparin (BD, No. 365971) on ice. Tubes were centrifuged to remove red blood cells, and plasma was stored on ice for 30 min. Clarified plasma was combined and aliquoted into 9×70 μl aliquots and placed on ice. The following nine experiments were performed: starting plasma (1) and plasma+10 μM BV (2-5) or BVMe2(6-9) at time 0 at 4° C. and 15, 60, and 1,440 min at 37° C. Reactions were stopped by freezing at −80° C. Plasma samples were thawed, diluted 4× with cold 50% ACN, 48% water (H2O), and 2% acetic acid, and centrifuged for 14 min at 4° C. Reverse-phase high performance liquid chromatography (HPLC) was performed on an Agilent 1100 Series HPLC on a Phenomenex Luna C18(2) reverse-phase column 100 Å, 250 cm×21.20 mm I.D. 10 μm reverse-phase column (00G-4253-P0 AX), with a 21 min, 10-90% H2O:ACN (0.05% trifluoroacetic acid, TFA) gradient and a flow rate of 1 ml/min into a diode array detector and MSD-Ion Trap (Agilent LC/MSD trap XCT).

Compound: C=CC1=C(C)/C(=C/C2=NC(=C\c3[nH]c(/C=C4\NC(=O)C(C)=C4C=C)c(C)c3CCC(=O)O)/C(CCC(=O)O)=C2C)NC1=O [BV, biliverdin, reference compound]
- quantum yield (QY) [1]: 0.013%
- fluorescence with 25 μM BV at pH 6.4 relative to BV at pH 7.5 (HEK293A cells; 3.5 h): increased fluorescence three-fold
- fluorescence with protonated BV (pH 6.4) relative to BVMe2 (HEK293A cells; pH 6.4): five-fold less
- stability in plasma in vitro [2]: slower degradation; also recorded: significantly degraded
